The assay has as its target T1, SYK (Homo sapiens, UniProt P43405).
T1 construct: 2.5 nM SYK, 400 nM Biotin-Aha-Aha-KEDPDYEWPSAKK
Kind of assay: SYK flash plate assay (enzyme assay). Type of assay: biochemical. The method, then: The kinase assay is performed either as 384-well Flashplate assay (for e.g. Topcount measurement) or as 384-well Image-Flashplate assay (for LEADseeker measurement).
2.5 nM SYK, 400 nM Biotin-Aha-Aha-KEDPDYEWPSAKK
and 10 μM ATP (spiked with 0.3 μCi 33P-ATP/well) are incubated in a total volume of 50 μl (60 mM Hepes, 10 mM MgCl2, 1.2 mM Dithiothreitol, 0.02% Brij35, 0.1% BSA, pH 7.5) with or without test compound for 1 hours at 30° C. The reaction is stopped with 25 μl 200 mM EDTA. After 30 Min at 30° C. the liquid is removed and each well washed thrice with 100 μl 0.9% sodium chloride solution. Non-specific reaction is determined in presence of […] Staurosporine. Radioactivity is measured with Topcount (when using Flashplates) or with LEADseeker (when using Image-Flashplates) respectively. Results (e.g. IC50-values) are calculated with program tools provided by the IT-department (e.g. Symyx Assay Explorer, Genedata Screener). In Vivo Assays CIA
In the case of `CC1(C)C(=O)Nc2cc(Nc3nc4c(N[C@H]5C[C@@H](N)C5)nccn4n3)ccc21` [C98, 6-[8-(cis-3-amino-cyclobutylamino)-[1,2,4]triazolo[1,5-a]pyrazin-2-ylamino]-3,3-dimethyl-1,3-dihydro-indol-2-one], the 50% inhibitory concentration (IC50) was below 100 nM.
In turn, `CC1(C)C(=O)Nc2cc(Nc3nc4c(N5CCCC5c5ccccc5)nccn4n3)ccc21` (centres unmarked) [C100, 3,3-dimethyl-6-[8-(2-phenyl-pyrrolidin-1-yl)-[1,2,4]triazolo[1,5-a]pyrazin-2-ylamino]-1,3-dihydro-indol-2-one] showed an IC50 of 300 to 3000 nM.
Molecule `CC1(C)C(=O)Nc2cc(Nc3nc4c(-c5cccc(S(N)(=O)=O)c5)nccn4n3)ccc21` [C102, 3-[2-(3,3-dimethyl-2-oxo-2,3-dihydro-1H-indol-6-ylamino)-[1,2,4]triazolo[1,5-a]pyrazin-8-yl]-benzenesulfonamide] came in with an IC50 below 100 nM.
As for `CCOC(=O)c1cnn2c1CN(c1nccn3nc(Nc4ccc5c(c4)NC(=O)C5(C)C)nc13)CC2` [C106, 5-[2-(3,3-dimethyl-2-oxo-2,3-dihydro-1H-indol-6-ylamino)-[1,2,4]triazolo[1,5-a]pyrazin-8-yl]-4,5,6,7-tetrahydro-pyrazolo[1,5-a]pyrazine-3-carboxylic acid ethyl ester], the half-inhibitory concentration (IC50) fell in the range of 300 to 3000 nM.
`CN1CCCC(Nc2nccn3nc(Nc4ccc5c(c4)NC(=O)C5(C)C)nc23)C1` (centres unmarked) [C107, 3,3-dimethyl-6-[8-(1-methyl-piperidin-3-ylamino)[1,2,4]triazolo[1,5-a]yrazin-2-ylamino]-1,3-dihydro-indol-2-one] gave an IC50 of 300 to 3000 nM.
Molecule `CC1(C)C(=O)Nc2cc(Nc3nc4c(N5CC6(C5)NC(=O)NC6=O)nccn4n3)ccc21` [C109, 2-[2-(3,3-dimethyl-2-oxo-2,3-dihydro-1H-indol-6-ylamino)-[1,2,4]triazolo[1,5-a]pyrazin-8-yl]-2,5,7-triaza-spiro[3.4]octane-6,8-dione] showed a half-maximal inhibitory concentration (IC50) of 100 to 300 nM.
Take `CC1(C)C(=O)Nc2cc(Nc3nc4c(N5CCCC6(C5)NC(=O)NC6=O)nccn4n3)ccc21` (centres unmarked) [C110, 7-[2-(3,3-dimethyl-2-oxo-2,3-dihydro-1H-indol-6-ylamino)-[1,2,4]triazolo[1,5-a]pyrazin-8-yl]-1,3,7-triaza-spiro[4.5]decane-2,4-dione]: the concentration for half-maximal inhibition (IC50) lay in the range of 300 to 3000 nM.
For the molecule `COc1cc(Nc2nc3c(N4CCN(C(=O)OC(C)(C)C)CC4)nccn3n2)cc(OC)c1` [D1, 4-[2-(3,5-dimethoxy-phenylamino)-[1,2,4]triazolo[1,5-a]pyrazin-8-yl]-piperazine-1-carboxylic acid tert-butyl ester], the IC50 fell in the range of 3000 to 50000 nM.
In turn, `COc1cc(Nc2nc3c(N4CCCC(C(N)=O)C4)nccn3n2)cc(OC)c1` (centres unmarked) [D2, 1-[2-(3,5-dimethoxy-phenylamino)-[1,2,4]triazolo[1,5-a]pyrazin-8-yl]-piperidine-3-carboxylic acid amide] yielded a half-maximal inhibitory concentration (IC50) of 300 to 3000 nM.
In turn, `CC1(C)C(=O)Nc2cc(Nc3nc4c(N5CCc6nc(O)nc(O)c6C5)nccn4n3)ccc21` [E1, 6-[8-(2,4-dihydroxy-7,8-dihydro-5H-pyrido[4,3-d]pyrimidin-6-yl)-[1,2,4]triazolo[1,5-a]pyrazin-2-ylamino]-3,3-dimethyl-1,3-dihydro-indol-2-one] yielded an IC50 below 100 nM.
`COC(=O)C1CCN(c2nccn3nc(Nc4ccc5c(c4)NC(=O)C5(C)C)nc23)C1` (centres unmarked) [E2, 1-[2-(3,3-dimethyl-2-oxo-2,3-dihydro-1H-indol-6-ylamino)-[1,2,4]triazolo[1,5-a]pyrazin-8-yl]-pyrrolidine-3-carboxylic acid methyl ester] yielded an IC50 below 100 nM.
`CC1(C)C(=O)Nc2cc(Nc3nc4c(N5CCC(C(N)=O)C5)nccn4n3)ccc21` (centres unmarked) [E3, 1-[2-(3,3-dimethyl-2-oxo-2,3-dihydro-1H-indol-6-ylamino)-[1,2,4]triazolo[1,5-a]pyrazin-8-yl]-pyrrolidine-3-carboxylic acid amide]: the IC50 was below 100 nM.
To `CC1(C)C(=O)Nc2cc(Nc3nc4c(N5CCC(C(=O)NC6CC6)C5)nccn4n3)ccc21` (centres unmarked) [E4, 1-[2-(3,3-dimethyl-2-oxo-2,3-dihydro-1H-indol-6-ylamino)-[1,2,4]triazolo[1,5-a]pyrazin-8-yl]-pyrrolidine-3-carboxylic acid cyclopropylamide] belongs 100 to 300 nM; to `CC1(C)C(=O)Nc2cc(Nc3nc4c(N5C[C@@H](O)C[C@@H]5c5ccccc5)nccn4n3)ccc21` [E5, 6-[8-((2R,4S)-4-hydroxy-2-phenyl-pyrrolidin-1-yl)-[1,2,4]triazolo[1,5-a]pyrazin-2-ylamino]-3,3-dimethyl-1,3-dihydro-indol-2-one], 100 to 300 nM; to `CC1(C)C(=O)Nc2cc(Nc3nc4c(N5C[C@H](O)C[C@@H]5c5ccccc5)nccn4n3)ccc21` [E6, 6-[8-(4(2R,4R)-4-hydroxy-2-phenyl-pyrrolidin-1-yl)-[1,2,4]triazolo[1,5-a]pyrazin-2-ylamino]-3,3-dimethyl-1,3-dihydro-indol-2-one], 100 to 300 nM.
To `CC1(C)CC(=O)Nc2cc(Nc3nc4c(N5CCC6(CC(=O)NC6=O)C5)nccn4n3)ccc21` (centres unmarked) [E7, 7-[2-(4,4-dimethyl-2-oxo-1,2,3,4-tetrahydro-quinolin-7-ylamino)-[1,2,4]triazolo[1,5-a]pyrazin-8-yl]-2,7-diaza-spiro[4.4]nonane-1,3-dione] belongs below 100 nM.
The molecule `Cn1cc(-c2nccn3nc(Nc4ccc5c(c4)NC(=O)C54CCC4)nc23)cn1` [E8, 6′-[[8-(1-methylpyrazol-4-yl)-[1,2,4]triazolo[1,5-a]pyrazin-2-yl]amino]spiro[cyclobutane-1,3′-indoline]-2′-one] returned a concentration for half-maximal inhibition (IC50) below 100 nM.
To `CC1(C)CCNc2cc(Nc3nc4c(N5CCC6(CCNC6)C5)nccn4n3)ccc21` (centres unmarked) [E9, [8-(2,7-diaza-spiro[4.4]non-2-yl)-[1,2,4]triazolo[1,5-a]pyrazin-2-yl]-(4,4-dimethyl-1,2,3,4-tetrahydro-quinolin-7-yl)-amine] belongs below 100 nM.
`CC1(C)C(=O)Nc2cc(Nc3nc4c(N5CCC6(C5)OCCO6)nccn4n3)ccc21` [E10, 6-[8-(1,4-dioxa-7-aza-spiro[4.4]non-7-yl)-[1,2,4]triazolo[1,5-a]pyrazin-2-ylamino]-3,3-dimethyl-1,3-dihydro-indol-2-one] displayed a concentration for half-maximal inhibition (IC50) of 100 to 300 nM.
For `CC(=O)N(C)C1CCN(c2nccn3nc(Nc4ccc5c(c4)NC(=O)C5(C)C)nc23)C1` (centres unmarked) [E11, N-{1-[2-(3,3-dimethyl-2-oxo-2,3-dihydro-1H-indol-6-ylamino)-[1,2,4]triazolo[1,5-a]pyrazin-8-yl]-pyrrolidin-3-yl}-N-methyl-acetamide], the IC50 fell in the range of 300 to 3000 nM.
`CC1(C)C(=O)Nc2cc(Nc3nc4c(N5CCC6(CCNC6=O)CC5)nccn4n3)ccc21` [E13, 8-[2-(3,3-dimethyl-2-oxo-2,3-dihydro-1H-indol-6-ylamino)-[1,2,4]triazolo[1,5-a]pyrazin-8-yl]-2,8-diaza-spiro[4.5]decan-1-one]: the 50% inhibitory concentration (IC50) is below 100 nM.
For `CC(=O)N1CCC(N(C)c2nccn3nc(Nc4ccc5c(c4)NC(=O)C5(C)C)nc23)CC1` [E14, 6-{8-[(1-acetyl-piperidin-4-yl)-methyl-amino]-[1,2,4]triazolo[1,5-a]pyrazin-2-ylamino}-3,3-dimethyl-1,3-dihydro-indol-2-one], the IC50 lay in the range of 100 to 300 nM.
`CC1(C)C(=O)Nc2cc(Nc3nc4c(N5CC[C@@]6(CC(=O)NC6=O)C5)nccn4n3)ccc21` [E16, (R)-7-[2-(3,3-dimethyl-2-oxo-2,3-dihydro-1H-indol-6-ylamino)-[1,2,4]triazolo[1,5-a]pyrazin-8-yl]-2,7-diaza-spiro[4.4]nonane-1,3-dione] displayed an IC50 below 100 nM.
In turn, `CN(c1nccn2nc(Nc3ccc4c(c3)NC(=O)C4(C)C)nc12)C1CCNCC1` [E17, 3,3-dimethyl-6-[8-(methyl-piperidin-4-yl-amino)-[1,2,4]triazolo[1,5-a]pyrazin-2-ylamino]-1,3-dihydro-indol-2-one] showed a 50% inhibitory concentration (IC50) of 100 to 300 nM.
`CC1(C)C(=O)Nc2cc(Nc3nc4c(N5CC[C@]6(CC(=O)NC6=O)C5)nccn4n3)ccc21` [E18, (S)-7-[2-(3,3-dimethyl-2-oxo-2,3-dihydro-1H-indol-6-ylamino)-[1,2,4]triazolo[1,5-a]pyrazin-8-yl]-2,7-diaza-spiro[4.4]nonane-1,3-dione] registered an IC50 below 100 nM.
As to `CC1(C)C(=O)Nc2cc(Nc3nc4c(N5CCC6(CCNC6=O)C5)nccn4n3)ccc21` (centres unmarked) [E19, 3,3-dimethyl-6-[8-(6-oxo-2,7-diaza-spiro[4.4]non-2-yl)-[1,2,4]triazolo[1,5-a]pyrazin-2-ylamino]-1,3-dihydro-indol-2-one], the IC50 is 100 to 300 nM.
In turn, `CC1(C)C(=O)Nc2cc(Nc3nc4c(N5CCC6(CNC(=O)C6)C5)nccn4n3)ccc21` (centres unmarked) [E20, 3,3-dimethyl-6-[8-(8-oxo-2,7-diaza-spiro[4.4]non-2-yl)-[1,2,4]triazolo[1,5-a]pyrazin-2-ylamino]-1,3-dihydro-indol-2-one] showed a 50% inhibitory concentration (IC50) below 100 nM.
The value for `Cn1cc(-c2nccn3nc(Nc4ccc5c(c4)NCCC5(C)C)nc23)cn1` [E21, (4,4-dimethyl-1,2,3,4-tetrahydro-quinolin-7-yl)-[8-(1-methyl-1H-pyrazol-4-yl)-[1,2,4]triazolo[1,5-a]pyrazin-2-yl]-amine] was below 100 nM; that for `CC1(C)C(=O)Nc2cc(Nc3nc4c(N5CCC[C@@H]5C(N)=O)nccn4n3)ccc21` [E22, (R)-1-[2-(3,3-dimethyl-2-oxo-2,3-dihydro-1H-indol-6-ylamino)-[1,2,4]triazolo[1,5-a]pyrazin-8-yl]-pyrrolidine-2-carboxylic acid amide] was 300 to 3000 nM.

In general, IC50 refers to the midpoint of a concentration-inhibition curve.
